Laboratory results: publication PMC9698340, “Discovery and SAR Study of Quinoxaline–Arylfuran Derivatives as a New Class of Antitumor Agents” (Pharmaceutics, 2022)

Assays:
HeLa cells [1] = experiment: Annexin V-FITC/PI apoptosis assay, flow cytometry; type: cell-based, human; conditions: control 3.5%
Description: For the Annexin V apoptosis assay, cells were collected at the end of the treatment, washed with cold PBS, and stained with the PI/Annexin V-FITC apoptosis kit (4A Biotech Co., Ltd., Beijing, China) following the manufacturer’s instructions. All flow cytometric analyses were performed at the Tianfu Science and Technology Park Molecular and Cell Platform in the West China Hospital.

recombinant STAT3 = recombinant STAT3 (Homo sapiens, UniProt P40763); experiment: Biolayer interferometry (BLI) assay; conditions: His-tagged STAT3 on SSA biosensors, QW12 5.2 to 333 μM, read-out: binding affinity (KD) to STAT3
recombinant STAT3, sequence (P40763 whole entry, species assumed): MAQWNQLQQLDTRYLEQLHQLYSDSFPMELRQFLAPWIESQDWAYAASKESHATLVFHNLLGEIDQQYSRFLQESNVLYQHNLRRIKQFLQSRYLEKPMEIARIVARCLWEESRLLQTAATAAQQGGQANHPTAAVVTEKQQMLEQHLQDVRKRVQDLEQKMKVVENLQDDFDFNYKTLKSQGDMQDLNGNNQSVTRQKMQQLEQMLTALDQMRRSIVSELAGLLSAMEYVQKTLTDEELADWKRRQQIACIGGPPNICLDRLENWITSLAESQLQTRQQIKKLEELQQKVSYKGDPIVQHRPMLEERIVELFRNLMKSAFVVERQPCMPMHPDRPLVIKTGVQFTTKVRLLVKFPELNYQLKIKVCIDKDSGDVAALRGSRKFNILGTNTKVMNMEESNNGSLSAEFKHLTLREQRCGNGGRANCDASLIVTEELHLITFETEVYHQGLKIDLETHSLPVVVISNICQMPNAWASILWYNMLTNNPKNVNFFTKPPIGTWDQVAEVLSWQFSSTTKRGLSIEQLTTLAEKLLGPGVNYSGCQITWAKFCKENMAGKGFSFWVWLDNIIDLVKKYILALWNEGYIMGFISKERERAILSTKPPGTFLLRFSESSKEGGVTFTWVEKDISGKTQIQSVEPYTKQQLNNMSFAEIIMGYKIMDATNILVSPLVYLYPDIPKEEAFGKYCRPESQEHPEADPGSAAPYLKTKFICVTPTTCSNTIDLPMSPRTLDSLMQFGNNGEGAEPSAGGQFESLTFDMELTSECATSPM
Description: BLI assays were performed using the BLItz system (Sartorius). Biosensors were first equilibrated 10 min in 1X kinetic buffer (Sartorius) consisting of PBS with 0.02% Tween20 and 0.1% BSA. Subsequently, depending on the assay, STAT3 was loaded onto the corresponding biosensor at a concentration of 1.9 µg/µL, as indicated in the Sartorius biosensor datasheets, for an appropriate time interval. The concentration range for the associating protein was chosen, when possible, based on the KD value available from the literature or experimentally determined for all scenarios wherein KD values were unknown. The data recorded were analyzed by means of the BLItz software and MATLAB to extrapolate the kinetic parameters. All association and dissociation curves were fitted by a single exponential function. Each acquisition was repeated twice to confirm reproducibility.
To confirm whether QW12 is a direct STAT3 inhibitor, a BLI (biolayer interferometry) analysis was performed. Briefly, recombinant STAT3 with a His tag was immobilized on SSA biosensors, and the dissociation constants were determined by measuring the binding to serial dilutions of QW12 at concentrations ranging from 5.2 to 333 μM (Figure 9A).

HCT116 cells = experiment: CCK-8 antiproliferation assay, HCT116; type: cell-based; conditions: Homo sapiens, HCT-116, 48 h
Description: (§1) Human lung carcinoma cell lines A549, human cervical cancer cell lines HeLa, human prostate cancer cell lines PC3, human colorectal carcinoma cell lines HCT116, and human liver cells L02 were purchased from the Chinese Academy of Sciences Shanghai Cell Bank (Shanghai, China). HeLa, A549, PC3, HCT116, and L02 cells were cultured in DMEM Dulbecco’s Modified Eagle Medium (DMEM; Gibco Inc., Gaithersburg, MD, USA). All cultures were provided with 10% fetal bovine serum (FBS; YHSM, Beijing, China), 100 IU/mL penicillin, and 100 μg/mL streptomycin, and cells were incubated at 37 °C in an atmosphere of 5% CO2.
(§2) Cell viability was determined using a CCK-8 kit (Apexbio, Houston, TX, USA). […] Subsequently, absorbance was assessed at 450 nm. Three duplicates were set in each group.
(§3) All synthesized quinoxalines compounds were tested for in vitro cytotoxicity against four cancer cell lines (HeLa, PC3, A549, and HCT116). The inhibitory effects of these compounds were evaluated using the CCK-8 assay after treatment with 20 μM of each compound. […] The species of phenyl substituents have a significant effect on the activity. […] By comparison, hydrophobic substitution at the phenyl ring gave derivatives with relatively low potency (QW7–8). In addition, large substituents on the phenyl ring exerted an unfavorable influence on the potency of the compounds (QW8 and QW16).

HeLa cells [2] = experiment: CCK-8 antiproliferation assay, HeLa; type: cell-based; conditions: Homo sapiens, 48 h
Description: as §1, §2, §3

A549 cells = experiment: CCK-8 antiproliferation assay, A549; type: cell-based; conditions: Homo sapiens, 48 h
Description: as §1, §2, §3

HeLa cells [3] = experiment: Wound healing assay; type: cell-based, human; conditions: after 48 h, control 55.7%
Description: A total of 1 × 10^6 cells/well in the logarithmic growth phase were seeded in 6-well plates. When cell density reached 80 to 90%, a scratch was made in the monolayer in the middle of the well with a 200 μL pipette tip. The tip was kept perpendicular to the bottom of the well to obtain a straight gap. The detached cells were washed away and removed. The healing of the wound within the same scraped line was then observed and photographed at the indicated time points (0 h, 24 h, 48 h). Each experiment was repeated three times.

L02 cells = experiment: CCK-8 cytotoxicity against normal hepatocytes L02; type: cell-based; conditions: Homo sapiens, 48 h, read-out: IC50 ± SD, L02 (human normal hepatocytes)
Description: as §1, §2
To further evaluate the anticancer effect of QW12, we evaluated its cytotoxicity against four human cancer cell lines: HeLa (Human cervical tumor), PC3 (Human prostate tumor), HCT116 (Human colorectal carcinomas), and A549 (Human lung carcinoma). […] Furthermore, the IC50 values of QW12 against PC3 and HCT116 were similar to those of nifuroxazide.

[4] = system: Bcl-2 and Bax in HeLa cells; experiment: Western blot of Bcl-2 and Bax; type: cell-based, human; conditions: 24 h
Description: HeLa cells were seeded in a 6-well plate overnight and treated with QW12 for 24 h. The cells were then harvested and washed with cold PBS and lysed with RIPA buffer supplemented with a protease and phosphatase inhibitor cocktail. Protein concentration was measured using a BCA protein assay kit (Boster Biological Technology Co., Ltd., Wuhan, China). Proteins were separated by 10% SDS-PAGE gel and transferred onto polyvinylidene difluoride (PVDF) membranes (Millipore Co., Billerica, MA, USA). After blocking with 5% mild in PBST for 1 h at room temperature, membranes were incubated with specific primary antibodies against STAT3 (#ET1605-45), Bcl-2 (#ET1603-11), Bax (#ET1603-34), or GAPDH (#HA721136) overnight at 4 °C. The above antibodies were purchased from HUABIO, China. Phospho-STAT3 (Tyr 705) (#9145S) and anti-rabbit IgG, HRP-linked antibody (#7074S) were purchased from Cell Signaling Technology, Inc. America. The next day, the membranes were washed with PBST three times and incubated with secondary antibodies 2 h at room temperature. Images were captured and documented with a CCD system (Tanon 5200, Biotanon, Shanghai, China).

[5] = HeLa cells, 10, 40 μM, vs control

Compound `COc1cc(-c2ccc(/C=N/NC(=O)c3ccc(O)cc3)o2)c(OC)cc1-c1ccc2nccnc2c1` [QW12, (E)-N’-((5-(2,5-dimethoxy-4-(quinoxalin-6-yl)phenyl)furan-2-yl)methylene)-4-hydroxybenzohydrazide] has a cell apoptosis rate (HeLa cells [1]; 10 μM) of 13.9%, a cell apoptosis rate (HeLa cells [1]; 40 μM) of 34.7% and a Kd (recombinant STAT3) of 67.3 µM. It also gave an inhibition at 20 µM (HCT116 cells; 20 μM, CCK-8, mean ± SD, read-out: Inhibition Rate (%) at 20 μM, HCT116) of 65.43 ± 0.27%, an IC50 (HCT116 cells; CCK-8, read-out: IC50 ± SD, HCT116) of 12.2 ± 0.25 µM and an IC50 (HeLa cells [2]; HeLa, CCK-8, read-out: IC50 ± SD, HeLa) of 10.58 ± 0.1 µM. It also gave an inhibition at 20 µM (HeLa cells [2]; 20 μM, CCK-8, mean ± SD, read-out: Inhibition Rate (%) at 20 μM, HeLa) of 76.35 ± 0.11%, an inhibition at 20 µM (A549 cells; 20 μM, CCK-8, mean ± SD, read-out: Inhibition Rate (%) at 20 μM, A549) of 50.8 ± 0.62% and an IC50 (A549 cells; CCK-8, read-out: IC50 ± SD, A549) of 20.6 ± 1.22 µM. For the same compound, the “rate of scratch closure” value (HeLa cells [3]; 10 μM) was 28.0%, the “rate of scratch closure” value (HeLa cells [3]; 40 μM) was 17.2% and the IC50 (L02 cells) was over 50 µM. The Bcl-2/Bax expression ratio ([4]; 40 μM, control 1.00) was 0.66 ± 0.01, the Bax expression [4, 5] was “increased slightly” and the Bcl-2 expression [4, 5] was “decreased significantly”.
